Reference: patent US20220062240A1, “METHODS OF TREATING CANCER USING A CLK INHIBITOR” (BioSplice Therapeutics, Inc., priority 2018, published 2022)
Read-outs that look alike come from different tables or passages of the source.

Experiments:
[1] = test system: lung cancer (4 cell lines); assay: CellTiter-Glo Viability Assay, lung cancer; type: cell-based; conditions: Homo sapiens, inhibition of cancer cell proliferation
CAMA1 = assay: CellTiter-Glo Viability Assay, breast cancer; type: cell-based; conditions: Homo sapiens, CAMA-1, 96 h; CAMA1, breast cancer, four days; read-out: EC50
ZR-75-1 = assay: CellTiter-Glo Viability Assay, breast cancer; type: cell-based; conditions: Homo sapiens, 96 h; ZR-75-1, breast cancer, four days; read-out: EC50
MCF7 = assay: CellTiter-Glo Viability Assay, breast cancer; type: cell-based; conditions: Homo sapiens, 96 h; MCF7, breast cancer, four days; read-out: EC50
MDA-MB-231-Luc = assay: CellTiter-Glo Viability Assay, breast cancer; type: cell-based; conditions: Homo sapiens, 96 h; MDA-MB-231-Luc, breast cancer, four days; read-out: EC50
T47D = assay: CellTiter-Glo Viability Assay, breast cancer; type: cell-based; conditions: Homo sapiens, 96 h, breast cancer, four days, read-out: EC50
HCC1599 = assay: CellTiter-Glo Viability Assay, breast cancer; type: cell-based; conditions: Homo sapiens, 96 h; HCC1599, breast cancer, four days; read-out: EC50
BT-549 = assay: CellTiter-Glo Viability Assay, breast cancer; type: cell-based; conditions: Homo sapiens, 96 h; BT-549, breast cancer, four days; read-out: EC50
DU4475 = assay: CellTiter-Glo Viability Assay, breast cancer; type: cell-based; conditions: Homo sapiens, DU-4475, 96 h; DU4475, breast cancer, four days; read-out: EC50
[2] = test system: prostate cancer (5 cell lines); assay: CellTiter-Glo Viability Assay, prostate cancer; type: cell-based; conditions: Homo sapiens
[3] = test system: liver cancer (3 cell lines); assay: CellTiter-Glo Viability Assay, liver cancer; type: cell-based; conditions: Homo sapiens, inhibition of cancer cell proliferation
[4] = test system: ovarian cancer (4 cell lines); assay: CellTiter-Glo Viability Assay, ovarian cancer; type: cell-based; conditions: Homo sapiens, inhibition of cancer cell proliferation
CLK3 = CLK3 (Homo sapiens, UniProt P49761); assay: CLK3 kinase activity assay (Z-lyte, Ser/Thr 18 peptide)
CLK3, sequence (P49761 whole entry): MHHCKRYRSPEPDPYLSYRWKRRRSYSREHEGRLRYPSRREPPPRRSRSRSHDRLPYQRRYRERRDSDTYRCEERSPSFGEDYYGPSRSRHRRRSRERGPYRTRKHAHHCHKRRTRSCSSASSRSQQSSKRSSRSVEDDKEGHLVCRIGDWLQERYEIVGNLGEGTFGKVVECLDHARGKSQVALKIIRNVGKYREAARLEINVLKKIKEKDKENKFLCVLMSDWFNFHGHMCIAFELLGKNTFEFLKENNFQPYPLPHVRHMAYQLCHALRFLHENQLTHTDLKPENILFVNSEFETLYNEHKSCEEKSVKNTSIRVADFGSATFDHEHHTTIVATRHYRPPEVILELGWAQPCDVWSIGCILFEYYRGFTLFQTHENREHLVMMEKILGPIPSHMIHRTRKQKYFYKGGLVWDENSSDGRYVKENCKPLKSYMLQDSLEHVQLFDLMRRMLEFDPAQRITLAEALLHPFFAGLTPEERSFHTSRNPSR

[5] = test system: pancreatic cancer (8 cell lines); assay: CellTiter-Glo Viability Assay, pancreatic cancer; type: cell-based; conditions: Homo sapiens, inhibition of cancer cell proliferation
[6] = test system: colorectal cancer (6 cell lines); assay: CellTiter-Glo Viability Assay, colorectal cancer; type: cell-based; conditions: Homo sapiens, inhibition of cancer cell proliferation
CLK2 = molecular target: T1, CLK2 (Homo sapiens, UniProt P49760); assay: CLK2 kinase activity assay (Z-lyte, Ser/Thr 6 peptide); type: biochemical; conditions: recombinant CLK2 kinase, ATP 60 μM; read-out: EC50
T1 construct: purchased Thermo Fisher (Life Technologies), Z'-LYTE Kinase Assay Kits
T1 sequence (P49760 whole entry): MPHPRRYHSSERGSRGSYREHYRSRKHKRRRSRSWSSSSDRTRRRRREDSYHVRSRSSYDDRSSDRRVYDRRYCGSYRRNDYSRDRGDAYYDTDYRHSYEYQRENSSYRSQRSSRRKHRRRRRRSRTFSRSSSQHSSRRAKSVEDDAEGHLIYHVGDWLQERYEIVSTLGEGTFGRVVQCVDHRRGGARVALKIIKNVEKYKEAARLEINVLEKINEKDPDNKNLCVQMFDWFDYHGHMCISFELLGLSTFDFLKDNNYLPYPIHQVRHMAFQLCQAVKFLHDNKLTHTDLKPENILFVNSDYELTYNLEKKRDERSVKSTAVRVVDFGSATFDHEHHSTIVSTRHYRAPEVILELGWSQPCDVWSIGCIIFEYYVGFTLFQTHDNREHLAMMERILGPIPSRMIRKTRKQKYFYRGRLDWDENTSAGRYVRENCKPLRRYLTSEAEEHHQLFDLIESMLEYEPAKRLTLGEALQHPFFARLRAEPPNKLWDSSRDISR
Experimental: All reactions were performed in duplicate.

all 50 cell lines = assay: CellTiter-Glo Viability Assay, average across all cell lines; type: cell-based; conditions: Homo sapiens; across all 50 cell lines; read-out: average EC50 for inhibition of cancer cell proliferation
In short: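 Cancer cell lines of several tumour types plated at 300-3,000 cells/well and exposed to compound in duplicate for four days at 37° C, 5% CO2, with DMSO-treated controls. Viability read by CellTiter-Glo luminescence (ATP content); EC50 derived from dose-response curves.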

[7] = test system: haematopoietic & lymphoid tumors (13 cell lines); assay: CellTiter-Glo Viability Assay, haematopoietic & lymphoid tumors; type: cell-based; conditions: Homo sapiens, inhibition of cancer cell proliferation
[8] = A-427, A427 cell line, read-out: Lung cancer, EC50 (μM) A427
[9] = HCC78, HCC-78 cell line, read-out: Lung cancer, EC50 (μM) HCC-78
[10] = NCI-H460 cell line, read-out: Lung cancer, EC50 (μM) NCI-H460
[11] = NCI-H522 cell line, read-out: Lung cancer, EC50 (μM) NCI-H522
[12] = DU-145, read-out: Prostate cancer EC50 Du-145
[13] = PC-3, PC3 cell line, inhibition of cancer cell proliferation, read-out: Prostate cancer EC50 PC3
[14] = 22Rv1 cell line, inhibition of cancer cell proliferation, read-out: Prostate cancer EC50 22Rv1
[15] = LNCap clone FGC cell line, inhibition of cancer cell proliferation, read-out: Prostate cancer EC50 LNCap clone FGC
[16] = VCaP (Sigma) cell line, inhibition of cancer cell proliferation, read-out: Prostate cancer EC50 VCaP (Sigma)
[17] = SNU-398, SNU398 cell line, read-out: Liver cancer, EC50 SNU398
[18] = HEPG2 cell line, read-out: Liver cancer, EC50 HEPG2
[19] = PLC/PRF/5 cell line, read-out: Liver cancer, EC50 PLC/PRF/5
[20] = PA-1, PA1 cell line, read-out: Ovarian cancer, EC50 (μM) PA1
[21] = TOV112D, TOV-112D cell line, read-out: Ovarian cancer, EC50 (μM) TOV-112D
[22] = OV-90 cell line, read-out: Ovarian cancer, EC50 (μM) OV-90
[23] = OVCAR-3 cell line, read-out: Ovarian cancer, EC50 (μM) OVCAR-3
[24] = BXPC-3, BxPC3 cell line, read-out: Pancreatic cancer, EC50 BxPC3
[25] = CAPAN-1, Capan1 cell line, read-out: Pancreatic cancer, EC50 Capan1
[26] = Capan-2, Capan2 cell line, read-out: Pancreatic cancer, EC50 Capan2
[27] = MIA PaCa-2 cell line, read-out: Pancreatic cancer, EC50 MIA PaCa-2
[28] = PANC 05.04 cell line, read-out: Pancreatic cancer, EC50 PANC 05.04
[29] = PANC-1 cell line, read-out: Pancreatic cancer, EC50 PANC-1
[30] = UPAFII cell line, read-out: Pancreatic cancer, EC50 UPAFII
[31] = HCT-116, HCT116 cell line, read-out: Colorectal cancer, EC50 (μM) HCT116
[32] = HT-29, HT29 cell line, read-out: Colorectal cancer, EC50 (μM) HT29
[33] = SW-620, SW620 cell line, read-out: Colorectal cancer, EC50 (μM) SW620
[34] = DLD-1 cell line, read-out: Colorectal cancer, EC50 (μM) DLD-1
[35] = SW48 cell line, read-out: Colorectal cancer, EC50 (μM) SW48
[36] = SW480 cell line, read-out: Colorectal cancer, EC50 (μM) SW480
[37] = DND41, DND-41 cell line, read-out: Haematopoietic & Lymphoid tumors, EC50 (μM) DND-41
[38] = MV4-11, MV-4-11 cell line, read-out: Haematopoietic & Lymphoid tumors, EC50 (μM) MV-4-11
[39] = Rec1, REC-1 cell line, read-out: Haematopoietic & Lymphoid tumors, EC50 (μM) REC-1
[40] = SU-DHL-4, SUDHL4 cell line, read-out: Haematopoietic & Lymphoid tumors, EC50 (μM) SUDHL4
[41] = HL-60 cell line, read-out: Haematopoietic & Lymphoid tumors, EC50 (μM) HL-60
[42] = JM1 cell line, read-out: Haematopoietic & Lymphoid tumors, EC50 (μM) JM1
[43] = JURKAT, Clone E6-1 cell line, read-out: Haematopoietic & Lymphoid tumors, EC50 (μM) JURKAT, Clone E6-1
[44] = JeKo-1 cell line, read-out: Haematopoietic & Lymphoid tumors, EC50 (μM) JeKo-1
[45] = KASUMI-1 cell line, read-out: Haematopoietic & Lymphoid tumors, EC50 (μM) KASUMI-1
[46] = Loucy cell line, read-out: Haematopoietic & Lymphoid tumors, EC50 (μM) Loucy
[47] = MOLT-4 cell line, read-out: Haematopoietic & Lymphoid tumors, EC50 (μM) MOLT-4
[48] = TF-1 cell line, read-out: Haematopoietic & Lymphoid tumors, EC50 (μM) TF-1
[49] = TOLEDO cell line, read-out: Haematopoietic & Lymphoid tumors, EC50 (μM) TOLEDO

SMILES: Cc1cc2ncc(-c3ccc4cnc(NC(=O)c5ccnc(N6CCN(C)CC6)c5)cc4c3)cc2[nH]1 [Compound 87]
- EC50 [1, 8]: 1.12 µM
- EC50 [1, 9]: 3.41 µM
- EC50 [1, 10]: 1.17 µM
- EC50 [1, 11]: 0.522 µM
- EC50 (CAMA1): 2650 nM
- EC50 (ZR-75-1): 2960 nM
- EC50 (MCF7): 4120 nM
- EC50 (MDA-MB-231-Luc): 3050 nM
- EC50 (T47D): 7090 nM
- EC50 (HCC1599): 1050 nM
- EC50 (BT-549): 1550 nM
- EC50 (DU4475): 1370 nM
- EC50 [2, 12]: 1480 nM
- EC50 [2, 13]: 1640 nM
- EC50 [2, 14]: 643 nM
- EC50 [2, 15]: 7840 nM
- EC50 [2, 16]: 525 nM
- EC50 [3, 17]: 177 nM
- EC50 [3, 18]: 6940 nM
- EC50 [3, 19]: 4290 nM
- EC50 [4, 20]: 1.36 µM
- EC50 [4, 21]: 1.43 µM
- EC50 [4, 22]: 3.65 µM
- EC50 [4, 23]: 0.866 µM
- EC50 (CLK3): 38.2 nM
- EC50 [5, 24]: 1250 nM
- EC50 [5, 25]: 950 nM
- EC50 [5, 26]: 1160 nM
- EC50 [5, 27]: 759 nM
- EC50 [5, 28]: 2880 nM
- EC50 [5, 29]: 2630 nM
- EC50 [5, 30]: 1030 nM
- EC50 [6, 31]: 0.904 µM
- EC50 [6, 32]: 1.32 µM
- EC50 [6, 33]: 0.798 µM
- EC50 [6, 34]: 1.1 µM
- EC50 [6, 35]: 0.394 µM
- EC50 [6, 36]: 1.7 µM
- EC50 (CLK2): 4.9 nM
- EC50 (all 50 cell lines): 1830 nM
- EC50 [7, 37]: 0.538 µM
- EC50 [7, 38]: 0.542 µM
- EC50 [7, 39]: 0.203 µM
- EC50 [7, 40]: 0.514 µM
- EC50 [7, 41]: 2.46 µM
- EC50 [7, 42]: 0.21 µM
- EC50 [7, 43]: 1.26 µM
- EC50 [7, 44]: 0.259 µM
- EC50 [7, 45]: 1.16 µM
- EC50 [7, 46]: 0.916 µM
- EC50 [7, 47]: 1.35 µM
- EC50 [7, 48]: 3.93 µM
- EC50 [7, 49]: 0.337 µM

SMILES: CN1CCCCN(C)c2nccc3[nH]c(nc23)-c2n[nH]c3ccc(cc23)-c2cncc(c2)C1 [Compound 58]
- EC50 [1, 8]: 0.177 µM
- EC50 [1, 9]: 0.9 µM
- EC50 [1, 10]: 0.454 µM
- EC50 [1, 11]: 0.103 µM
- EC50 (CAMA1): 1020 nM
- EC50 (ZR-75-1): 519 nM
- EC50 (MCF7): 1810 nM
- EC50 (MDA-MB-231-Luc): 505 nM
- EC50 (T47D): 1240 nM
- EC50 (HCC1599): 379 nM
- EC50 (BT-549): 480 nM
- EC50 (DU4475): 131 nM
- EC50 [2, 12]: 179 nM
- EC50 [2, 13]: 313 nM
- EC50 [2, 14]: 121 nM
- EC50 [2, 15]: 1060 nM
- EC50 [2, 16]: 350 nM
- EC50 [3, 17]: 31 nM
- EC50 [3, 18]: 2110 nM
- EC50 [3, 19]: 1600 nM
- EC50 [4, 20]: 0.147 µM
- EC50 [4, 21]: 0.292 µM
- EC50 [4, 22]: 0.847 µM
- EC50 [4, 23]: 0.162 µM
- EC50 (CLK3): 11.9 nM
- EC50 [5, 24]: 462 nM
- EC50 [5, 25]: 323 nM
- EC50 [5, 26]: 249 nM
- EC50 [5, 27]: 120 nM
- EC50 [5, 28]: 752 nM
- EC50 [5, 29]: 578 nM
- EC50 [5, 30]: 190 nM
- EC50 [6, 31]: 0.15 µM
- EC50 [6, 32]: 0.455 µM
- EC50 [6, 33]: 0.066 µM
- EC50 [6, 34]: 0.132 µM
- EC50 [6, 35]: 0.057 µM
- EC50 [6, 36]: 0.165 µM
- EC50 (CLK2): 1.6 nM
- EC50 (all 50 cell lines): 441 nM
- EC50 [7, 37]: 0.106 µM
- EC50 [7, 38]: 0.013 µM
- EC50 [7, 39]: 0.089 µM
- EC50 [7, 40]: 0.074 µM
- EC50 [7, 41]: 1.13 µM
- EC50 [7, 42]: 0.032 µM
- EC50 [7, 43]: 0.271 µM
- EC50 [7, 44]: 0.067 µM
- EC50 [7, 45]: 0.185 µM
- EC50 [7, 46]: 0.145 µM
- EC50 [7, 47]: 0.314 µM
- EC50 [7, 48]: 0.921 µM
- EC50 [7, 49]: 0.065 µM
